# Results from publication PMC11320730, “5-Methoxy-2-aminoindane Reverses Diet-Induced Obesity and Improves Metabolic Parameters in Mice: A Potential New Class of Antiobesity Therapeutics” (ACS Pharmacology & Translational Science, 2024).
# Columns and labels:
# MAO-A = test system: MAO-A; parameters: method as in PMID 29458138; settings: cited from earlier work
# 5-HT2B receptor = biological target: 5-HT2B receptor; parameters: method as in PMID 30904940; settings: cited from earlier work
# [1] = test system: hepatic lipid metabolism regulators; assay: Western blotting of liver proteins in DIO mice; assay type: in vivo; settings: 40 mg/kg/day
# Protocol: (§1) Male C57BL/6 mice were used to establish DIO by feeding them a high-fat diet (HFD; 60% cal/L fat, 20% cal/L protein, and 20% cal/L carbohydrates; Research Diet, D12492) for 18 weeks. After this period, mice were treated with either vehicle (sterile water, N = 8) or MEAI (N = 11) daily for 28 days by gavage at a dose of 40 mg/kg/day. Age-matched control mice (N = 10) on a standard diet (STD; 14% kcal fat, 24% kcal protein, 62% kcal carbohydrates; NIH-31 rodent diet) received vehicle daily. The body weight of all mice was monitored daily, and total body fat and lean mass were determined by EchoMRI-100H (Echo Medical Systems LLC, Houston, Texas, USA). On day 29, at the end of the experimental period, mice were euthanized by a cervical dislocation under anesthesia. The kidneys, brain, liver, and fat pads were removed and weighed, and samples were either snap-frozen or fixed in buffered 4% formalin. Trunk blood was collected to determine the biochemical parameters.
# Liver samples were prepared in a RIPA buffer (25 mM Tris–HCl pH 7.6, 150 mM NaCl, 1% NP-40, 1% sodium deoxycholate, 0.1% SDS), and the homogenates were prepared by using the Bullet Blender and zirconium oxide beads (catalog no. ZROB10, Next Advanced, Inc., New York, USA). Protein concentrations were measured with the Pierce BCA Protein Assay Kit (catalog no. 23225, Thermo Scientific, Illinois, USA). Samples were resolved by SDS-PAGE (4–15% acrylamide, 150 V) and transferred to PVDF or nitrocellulose membranes using the Trans-Blot Turbo Transfer System (Bio-Rad, California). The membranes were then incubated for 1 h in 5% milk (in 1× M TBS-T) to block unspecific binding. The membranes were incubated overnight with cluster of differentiation 36 (CD36; Abcam, Cambridge, UK; Cat# ab252922), stearoyl-CoA desaturase 1 (SCD1; Cell Signaling Technology, Danvers, Massachusetts; Cat# 2794S), fatty acid synthase (FASN; Cell Signaling Technology, Danvers, Massachusetts, USA; Cat# 3180S), 5′-adenosine monophosphate (AMP)-activated protein kinase alpha (AMPKα; Cell Signaling Technology, Danvers, Massachusetts, USA; Cat# 2532S), phosphorylated-AMPKα (Cell Signaling Technology, Danvers, Massachusetts, USA; Cat# 2535S), acetyl-CoA carboxylase (ACC; Cell Signaling Technology, Danvers, Massachusetts, USA; Cat# 3662S), and phosphorylated ACC (Cell Signaling Technology, Danvers, Massachusetts, USA; Cat# 3661S) antibodies at 4 °C. Antirabbit/mouse horseradish peroxidase (HRP)-conjugated secondary antibodies were used for 1 h at room temperature, followed by chemiluminescence detection using Clarity Western ECL Blotting Substrate (Bio-Rad, California). Densitometry was quantified by using ImageJ software. Quantification was normalized to anti-β actin antibody (Abcam, Cambridge, UK; Cat# ab49900) or valosin-containing protein (VCP) (Abcam, Cambridge, UK; Cat# ab204290).
# 5-HT2B = 5-HT2B (Homo sapiens, UniProt P41595); assay: Ligand binding assay (Eurofins); parameters: Eurofins (contract screening service); settings: read-out: inhibitory activity (% inhibition of the binding of a specific ligand)
# Protocol: MEAI at 10 μM was tested in ligand binding assays at Eurofins Inc., as described previously.[20] Compound binding was calculated as a % inhibition of the binding of a ligand specific for each target. Results showing an inhibition or stimulation higher than 50% are considered to represent significant effects of MEAI. In each experiment, and if applicable, the respective reference compound was tested concurrently with MEAI and the data were compared with historical values determined at Eurofins. The experiment was accepted in accordance with the Eurofins validation Standard Operating Procedure.
# C57Bl/6 mice [2] = assay: Acute single oral dose of MEAI: drug tolerability; assay type: in vivo; settings: lean male mice
# Protocol: (§2) Male 6-week-old C57Bl/6 mice (Harlan, Israel) were maintained in standard conditions under a 12 h light/dark cycle and fed ad libitum. A total of 32 animals were divided into four experimental groups (N = 8 mice per group) receiving single doses of 40, 60, or 100 mg/kg of MEAI or vehicle (sterile water), which was administered via oral gavage 2 h prior to the dark phase. The animals were monitored for 48 h postdose for drug tolerability, food and water intakes, and activity and metabolic parameters. At the end of the experiment, the animals were euthanized, and tissues (brain, liver, fat, and kidney) and blood were collected and stored in a frozen state for future analyses.
# [3] = test system: vesicular monoamine transporter (VMAT); parameters: method as in PMID 29458138; settings: cited from earlier work
# C57Bl/6 mice [4] = assay: Acute effect of MEAI on wheel running and locomotor activity; assay type: in vivo; settings: lean male mice, vs vehicle
# Protocol: as §2
# The activity energy expenditure was calculated based on eq 7: [drawing 7] 7
# The assessment of wheel running and locomotor activity was performed by using the Promethion High-Definition Behavioral Phenotyping System (Sable Instruments, Inc., Las Vegas, Nevada, USA). Wheel revolutions were measured with a monitor that recorded voluntary wheel running activity, and locomotor activity was quantified using disruptions of infrared XYZ beam arrays with a beam spacing of 0.25 cm. Pedestrian locomotion represented the sum of all directed ambulatory locomotion within the beam break system, using a speed cutoff of 1 cm/s. Total distance represented the sum of all distances traveled within the beam break system, not including any distance run on the wheel in meters (m); this included fine movements (such as grooming and scratching).
# DIO C57BL/6 mice = assay: Effect of MEAI on obesity: body weight and body composition (EchoMRI) in DIO mice; assay type: in vivo; settings: 28 days
# Protocol: as §1
# [5] = test system: dopamine transporter (DAT); parameters: method as in PMID 30904940; settings: cited from earlier work
# [6] = single oral dose, all doses (40, 60, 100 mg/kg)
# Sequence of 5-HT2B (P41595 whole entry): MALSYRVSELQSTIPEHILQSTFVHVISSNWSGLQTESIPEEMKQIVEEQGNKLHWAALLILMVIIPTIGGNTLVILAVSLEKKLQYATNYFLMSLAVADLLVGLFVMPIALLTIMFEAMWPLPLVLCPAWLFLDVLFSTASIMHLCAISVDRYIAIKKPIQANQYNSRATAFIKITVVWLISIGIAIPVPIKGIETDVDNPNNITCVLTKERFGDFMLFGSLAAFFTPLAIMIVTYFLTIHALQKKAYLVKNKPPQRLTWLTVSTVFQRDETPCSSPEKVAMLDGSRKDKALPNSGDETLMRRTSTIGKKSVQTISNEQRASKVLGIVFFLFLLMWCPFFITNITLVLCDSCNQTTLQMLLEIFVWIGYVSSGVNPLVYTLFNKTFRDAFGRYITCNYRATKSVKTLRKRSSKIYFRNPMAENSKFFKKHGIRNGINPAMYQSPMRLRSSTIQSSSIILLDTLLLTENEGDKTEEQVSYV
smiles,measurement,setting,value
"COc1ccc2c(c1)CC(N)C2.Cl (stereo not shown) [MEAI, 2,3-Dihydro-5-methoxy-1H-inden-2-amine hydrochloride]",binding inhibition,MAO-A,unaffected
same,Ki,5-HT2B receptor,4.79 µM
same,CD36 protein levels,[1],remained unchanged
same,FASN protein levels,[1],significantly reduced
same,SCD1 protein levels,[1],significantly reduced
same,phosphorylated ACC (p-ACC) levels,[1],did not significantly affect
same,phosphorylated AMPK (p-AMPK),[1],trend toward increased
same,inhibition at 10 µM,5-HT2B,> 50%
same,deaths after dosing,"C57Bl/6 mice [2]; single oral dose 100 mg/kg, within a few hours",two subjects in the 100 mg/kg group died
same,drug tolerability,"C57Bl/6 mice [2]; single oral dose, 40 and 60 mg/kg",well-tolerated
same,binding inhibition,[3],unaffected
same,pedestrian speed,C57Bl/6 mice [4]; single oral dose 60 mg/kg,significant increase
same,total number of beam breaks (ambulation and fine movements),"C57Bl/6 mice [4]; single oral dose 40, 60 or 100 mg/kg",minor alterations
same,directed voluntary activity (pedestrian locomotion),"C57Bl/6 mice [4]; single oral dose, 40 mg/kg and above",significant and dose-dependent increase
same,average distance traveled within the cage,C57Bl/6 mice [4]; [6],significant elevations
same,total distance traveled within the cage,C57Bl/6 mice [4]; [6],significant elevations
same,sum of voluntary wheel running activity,"C57Bl/6 mice [4]; single oral dose, any dose tested",did not significantly affect
same,activity-specific energy expenditure,C57Bl/6 mice [4]; single oral dose,modest insignificant rise
same,decrease in total body weight,"DIO C57BL/6 mice; DIO mice, 40 mg/kg/day by gavage, compared to obese vehicle-treated group",~15%
same,adiposity associated with obesity,"DIO C57BL/6 mice; DIO mice, 40 mg/kg/day",reduced
same,lean body mass ratio,"DIO C57BL/6 mice; DIO mice, 40 mg/kg/day",maintaining
same,net lean mass,"DIO C57BL/6 mice; DIO mice, 40 mg/kg/day",maintaining
same,overall fat mass,"DIO C57BL/6 mice; DIO mice, 40 mg/kg/day",reducing
same,body weight,"DIO C57BL/6 mice; HFD-fed (DIO) mice, 40 mg/kg/day by gavage",significantly reduced
same,interaction with transporter,[5],interacts
